Source: US20100056525A1, “5- AND 6- SUBSTITUTED BENZIMIDAZOLE THIOPHENE COMPOUNDS” (priority 2006, published 2010)

Legend:
PLK1 kinase domain = molecular target: T1, PLK1 kinase domain (Homo sapiens, UniProt P53350); assay: Assay for Inhibition of PLK1 (SPA, 33P-ATP); type: biochemical; conditions: 2 nM PLK1 kinase domain, 1 μM ATP, 22° C.; read-out: PLK1 pIC50 (converted)
T1 construct: made in house; host or cells: baculovirus infected T. ni cells
Description: A. Preparation of 6× N-Terminal His-Tagged PLK Kinase Domain
All procedures were performed at 4° C. Cells were lysed in 50 mM HEPES, 200 mM NaCl, 50 mM imidazole, 5% glycerol; pH 7.5. The homogenate was centrifuged at 14K rpm in a SLA-1500 rotor for 1 hr and the supernatant filtered through a 1.2 micron filter. The supernatant was loaded onto a Nickel chelating Sepharose (Amersham Pharmacia) column and washed with lysis buffer. Protein was eluted using 20%, 30% and 100% buffer B steps where buffer B was 50 mM HEPES, 200 mM NaCl, 300 mM imidazole, 5% glycerol; pH 7.5. Fractions containing PLK were determined by SDS-PAGE. Fractions containing PLK were diluted five-fold with 50 mM HEPES, 1 mM DTT, 5% glycerol; pH 7.5, then loaded on an SP Sepharose (Amersham Pharmacia) column. After washing the column with 50 mM HEPES, 1 mM DTT, 5% glycerol; pH 7.5, PLK was step eluted with 50 mM HEPES, 1 mM DTT, 500 mM NaCl; 5% glycerol; pH 7.5. PLK was concentrated using a 10 kDa molecular weight cutoff membrane and then loaded onto a Superdex 200 gel filtration (Amersham Pharmacia) column equilibrated in 25 mM HEPES, 1 mM DTT, 500 mM NaCl, 5% glycerol; pH 7.5. Fractions containing PLK were determined by SDS-PAGE. PLK was pooled, aliquoted and stored at −80° C. Samples were quality controlled using mass spectrometry, N-terminal sequencing and amino acid analysis.
B. Enzyme Activity +/− Inhibitors was Determined as Follows:
All measurements were obtained under conditions where signal production increased linearly with time and enzyme. Test compounds were added to white 384-well assay plates (0.1 μL for 10 μL and some 20 μL assays, 1 μL for some 20 μL assays) at variable known concentrations in 100% DMSO. DMSO (1-5% final, as appropriate) and EDTA (65 mM in reaction) were used as controls.
Reaction Mix (10 or 20 μL) was quickly added to each well immediately following addition of enzyme via automated liquid handlers and incubated 1-1.5 h at 22° C. The 20 μL enzymatic reactions were stopped with 50 μL of stop mix (50 mM EDTA, 4.0 mg/mL Streptavidin SPA beads in Standard Dulbecco's PBS (without Mg^2+ and Ca^2+), 50 μM ATP) per well. The 10 μL reactions were stopped with 10 μL of stop mix (50 mM EDTA, 3.0 mg/mL Streptavidin-coupled SPA Imaging Beads (“LeadSeeker”) in Standard Dulbecco's PBS (without Mg^2+ and Ca^2+), 50 μM ATP) per well. Plates were sealed with clear plastic seals, spun at 500×g for 1 min or settled overnight, and counted in Packard TopCount for 30 seconds/well (regular SPA) or imaged using a Viewlux imager (LeadSeeker SPA). Signal above background (EDTA controls) was converted to percent inhibition relative to that obtained in control (DMSO-only) wells.

[1] = test system: HCT-116 (human colon) cells; assay: Cell-Titer Glo Cell Growth Inhibition Assay; type: cell-based; conditions: HCT-116 cells, 72 h incubation, CellTiter-Glo, read-out: HCT116 IC50
Description: A549-L (human lung), Colo 205 (human colon), HCT-116 (human colon), HT29 (human colon), MX-1 (human breast), SKOV3 (human ovary) and P388 (murine leukemia) cell lines were cultured in RPM11640 containing 10% fetal bovine serum at 37° C. in a 5% CO2 incubator. Cell lines were split into T75 flasks (Falcon #353136) two to three days prior to assay set up at density which yields approximately 70-80% confluency at time of harvest for assay. Cells were harvested using 0.25% trypsin with EDTA (Glibco/Invitrogen #25200-056), Cell counts were performed on cell suspensions using Trypan Blue exclusion staining, cells were then plated in 105 µL of culture media per well at the following densities in 96 well Costar #3916 black flat bottom plates: A549-L 500 cells/well, Colo205 500 cells/well, HCT-116 500 cells/well, HT29 500 cells/well, MX-1 500 cells/well, SKOV3 500 cells/well and P388 250 cells/well. All plates were placed at 5% CO2 37° C. overnight and then test compounds were added the following day. One plate of each cell type was treated with CellTiter-Glo (Promega #G7573) for a day 0 proliferation measurement and read as described below. The test compounds were prepared in clear U bottom polypropylene 96 well plates (Falcon #35-1190 with consecutive two fold dilutions. 9 uL of these dilutions was added into each well of the cell plates. The final concentration of DMSO in all wells was 0.15%. Cells were incubated at 37° C., 5% CO2 for 72 h. Following 72 h of incubation with compounds each plate was developed and read. CellTiter-Glo reagent was added to assay plates using a volume equivalent to the cell culture volume in the wells. Plates were shaken for approximately 2 min and incubated at rt for approximately 15 min and the chemiluminescent signal was read on the Victor V or Envison 2100 reader. […] Concentration of compound that inhibited 50% of cell growth (IC50) was analyzed by 4 or 6 parameter fit of data using XLfit, value of no cell addition was substracted from all samples for background.

T1 sequence (P53350 21-346): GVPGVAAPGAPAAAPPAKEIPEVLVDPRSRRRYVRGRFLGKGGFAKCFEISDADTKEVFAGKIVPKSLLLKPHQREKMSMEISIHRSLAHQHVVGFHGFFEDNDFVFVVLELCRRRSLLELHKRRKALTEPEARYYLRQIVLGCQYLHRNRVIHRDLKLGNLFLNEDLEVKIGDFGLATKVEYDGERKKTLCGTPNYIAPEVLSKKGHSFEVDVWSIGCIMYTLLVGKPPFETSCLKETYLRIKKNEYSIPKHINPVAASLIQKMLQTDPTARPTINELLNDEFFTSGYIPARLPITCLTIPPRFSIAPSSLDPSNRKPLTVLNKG

| Compound | IC50 (PLK1 kinase domain) | IC50 [1] |
| --- | --- | --- |
| C[C@@H](Oc1cc(-n2cnc3cc(-c4cnc(NCCCN(C)C)nc4)ccc32)sc1C(N)=O)c1ccccc1Cl [Example 18, 3-{[(1R)-1-(2-Chlorophenyl)ethyl]oxy}-5-[5-(2-{[3-(dimethylamino)propyl]amino}-5-pyrimidinyl)-1H-benzimidazol-1-yl]-2-thiophenecarboxamide] | < 100 nM | < 500 nM |
| C[C@@H](Oc1cc(-n2cnc3cc(-c4ccnc(NCCCN5CCN(C)CC5)n4)ccc32)sc1C(N)=O)c1ccccc1Cl [Example 17, 3-{[(1R)-1-(2-chlorophenyl)ethyl]oxy}-5-[5-(2-{[3-(4-methyl-1-piperazinyl)propyl]amino}-4-pyrimidinyl)-1H-benzimidazol-1-yl]-2-thiophenecarboxamide] | < 100 nM | < 500 nM |
| C[C@@H](Oc1cc(-n2cnc3cc(-c4ccnc(NCCN)c4)ccc32)sc1C(N)=O)c1ccccc1C(F)(F)F [Example 6, 5-(5-{2-[(2-Aminoethyl)amino]-4-pyridinyl}-1H-benzimidazol-1-yl)-3-([(1R)-1-[2-(trifluoromethyl)phenyl]ethyl]oxy)-2-thiophenecarboxamide] | < 100 nM | < 500 nM |
| C[C@@H](Oc1cc(-n2cnc3cc(-c4ccc(N(C)CCCN(C)C)nc4)ccc32)sc1C(N)=O)c1ccccc1Cl [Example 33, 3-{[(1R)-1-(2-chlorophenyl)ethyl]oxy}-5-(5-[6-[[3-(dimethylamino)propyl](methyl)amino]-3-pyridinyl]-1H-benzimidazol-1-yl)-2-thiophenecarboxamide] | < 100 nM | < 500 nM |
| C[C@@H](Oc1cc(-n2cnc3cc(-c4ccnc(NCCCN(C)C)c4)ccc32)sc1C(N)=O)c1ccccc1C(F)(F)F [Example 5, 5-[5-(2-{[3-(Dimethylamino)propyl]amino}-4-pyridinyl)-1H-benzimidazol-1-yl]-3-([(1R)-1-[2-(trifluoromethyl)phenyl]ethyl]oxy)-2-thiophenecarboxamide] | < 100 nM | < 500 nM |
| CNCCNc1cc(-c2ccc3c(c2)ncn3-c2cc(O[C@H](C)c3ccccc3C(F)(F)F)c(C(N)=O)s2)ccn1 [Example 2, 5-[5-(2-{[2-(Methylamino)ethyl]amino}-4-pyridinyl)-1H-benzimidazol-1-yl]-3-({(1R)-1-[2-(trifluoromethyl)phenyl]ethyl}oxy)-2-thiophenecarboxamide] | < 100 nM | < 500 nM |
| C[C@@H](Oc1cc(-n2cnc3cc(-c4ccc(NC(=O)CN5CCOCC5)cc4)ccc32)sc1C(N)=O)c1ccccc1Cl [Example 24, 3-{[(1R)-1-(2-chlorophenyl)ethyl]oxy}-5-(5-[4-[(4-morpholinylacetyl)amino]phenyl]-1H-benzimidazol-1-yl)-2-thiophenecarboxamide] | < 100 nM | < 500 nM |
| C[C@@H](Oc1cc(-n2cnc3cc(-c4ccnc(NCCN(C)C)n4)ccc32)sc1C(N)=O)c1ccccc1C(F)(F)F [Example 16, 5-[5-(2-{[2-(Dimethylamino)ethyl]amino}pyrimidin-4-yl)-1H-benzimidazol-1-yl]-3-({(1R)-1-[2-(trifluoromethyl)phenyl]ethyl}oxy)thiophene-2-carboxamide] | < 100 nM | < 500 nM |
| C[C@@H](Oc1cc(-n2cnc3cc(-c4ccnc(NC(=O)CN)c4)ccc32)sc1C(N)=O)c1ccccc1C(F)(F)F [Example 4, 5-{5-[2-(Glycylamino)-4-pyridinyl]-1H-benzimidazol-1-yl}-3-({(1R)-1-[2-(trifluoromethyl)phenyl]ethyl}oxy)-2-thiophenecarboxamide] | < 100 nM | < 500 nM |
| C[C@@H](Oc1cc(-n2cnc3cc(-c4cccc(OCCN5CCCC5)c4)ccc32)sc1C(N)=O)c1ccccc1Cl [Example 23, 3-{[(1R)-1-(2-chlorophenyl)ethyl]oxy}-5-[5-(3-{[2-(1-Pyrrolidinyl)ethyl]oxy}phenyl)-1H-benzimidazol-1-yl]-2-thiophenecarboxamide] | < 100 nM | < 500 nM |
| C[C@@H](Oc1cc(-n2cnc3cc(-c4cnc(N(C)CCN(C)C)nc4)ccc32)sc1C(N)=O)c1ccccc1Cl [Example 21, 3-{[(1R)-1-(2-chlorophenyl)ethyl]oxy}-5-(5-{2-[[2-(dimethylamino)ethyl](methyl)amino]-5-pyrimidinyl}-1H-benzimidazol-1-yl)-2-thiophenecarboxamide] | < 100 nM | < 500 nM |
| C[C@@H](Oc1cc(-n2cnc3cc(-c4ccnc(NCCN(C)C)c4)ccc32)sc1C(N)=O)c1ccccc1Cl [Example 10, 3-{[(1R)-1-(2-chlorophenyl)ethyl]oxy}-5-[5-(2-{[2-(dimethylamino)ethyl]amino}-4-pyridinyl)-1H-benzimidazol-1-yl]-2-thiophenecarboxamide] | < 100 nM | < 500 nM |
| CC(C)[C@H](N)C(=O)OCCNc1cc(-c2ccc3c(c2)ncn3-c2cc(O[C@H](C)c3ccccc3Cl)c(C(N)=O)s2)ccn1 [Example 15, 2-({4-[1-(5-(Aminocarbonyl)-4-{[(1R)-1-(2-chlorophenyl)ethyl]oxy}-2-thienyl)-1H-benzimidazol-5-yl]-2-pyridinyl}amino)ethyl L-valinate] | < 100 nM | < 500 nM |
| C[C@@H](Oc1cc(-n2cnc3cc(-c4ccc(NCCCN5CCN(C)CC5)nn4)ccc32)sc1C(N)=O)c1ccccc1Cl [Example 34, 3-{[(1R)-1-(2-chlorophenyl)ethyl]oxy}-5-[5-(6-{[3-(4-methyl-1-piperazinyl)propyl]amino}-3-pyridazinyl)-1H-benzimidazol-1-yl]-2-thiophenecarboxamide] | < 100 nM | 500 to 1000 nM |
| C[C@@H](Oc1cc(-n2cnc3cc(-c4ccc(NCCCN5CCN(C)CC5)nc4)ccc32)sc1C(N)=O)c1ccccc1Cl [Example 31, 3-{[(1R)-1-(2-chlorophenyl)ethyl]oxy}-5-[5-(6-{[3-(4-methyl-1-piperazinyl)propyl]amino}-3-pyridinyl)-1H-benzimidazol-1-yl]-2-thiophenecarboxamide] | < 100 nM | < 500 nM |
| C[C@@H](Oc1cc(-n2cnc3cc(-c4cnc(NCCCN5CCN(C)CC5)nc4)ccc32)sc1C(N)=O)c1ccccc1Cl [Example 20, 3-{[(1R)-1-(2-Chlorophenyl)ethyl]oxy}-5-[5-(2-{[3-(4-methyl-1-piperazinyl)propyl]amino}-5-pyrimidinyl)-1H-benzimidazol-1-yl]-2-thiophenecarboxamide] | < 100 nM | < 500 nM |
